The source of these data is patent US20150141485A1, “PROGNOSIS AND TREATMENT OF LUNG CANCER USING miRNA-135b” (NATIONAL CHENG KUNG UNIVERSITY, priority 2013, published 2015).

Oligonucleotides are written 5' to 3', each unit as a sugar letter and its base; * is a phosphorothioate linkage, no mark a phosphodiester; rarer units and linkages stand in square brackets, end groups in braces. Plain capitals give the bases only. {Chol} = cholesterol; m = 2'-O-methyl

Data set [1] relates to CL1-5-F4 cells. Briefly: Western blot of endogenous LZTS1. Type of data set: cell-based, human. As to conditions: 100 nM, 48 hours. As for the experimental part:
(§1) CL1-5-F4 and UACC-257 cells were administrated with 100 nM of negative control (NC) or antago-135b for 48 hours. Total cell lysates were harvested for western blot analysis.
For orientation: In western blotting, separated proteins are transferred to a membrane and probed.

In data set [2] the test system is Hop-62 cells. Briefly: Migration assay (culture inserts). Type of data set: cell-based. As to conditions: Hop-62 cells transfected 48 hours, vs scramble (NC). The protocol:
(§2) CL1-5-F4 and Hop-62 cells were transfected with scramble (NC) of miR-135b-specific antagomir (Antago-135b) for 48 hours and the subjected to migration assays (FIG. 2d) and invasion assays (FIG. 2e) as described above. *P<0.05;**P<0.005 by Student's t-test.
(§3) For the migration assay, culture inserts (Ibidi, Munich, Germany) were inserted into 60-mm dishes. Next, the cell suspensions were seeded in each culture insert well at a concentration of 2.5×10^4 (CL1-0) or 3×10^4 (CL1-5-F4 and UACC-257) cells/mL. The culture inserts were removed to leave a gap of approximately 500 μm.

In data set [3] the test system is pGL3-3′-UTRs of Hippo pathway genes. The experiment in a line: Luciferase reporter assay, Hippo pathway 3'-UTRs. The conditions noted are these: CL1-0 cells co-transfected with miR-135b and pGL3-3′-UTRs, 60 hours. It counts as cell-based. The protocol: CL1-0 cells co-transfected with miR-135b and pGL3-3′-UTRs with scramble (NC) or Antago-135b for 60 hours. Luciferase activity was assayed and is presented a described in FIG. 6a. Mean±s.d. is shown, *P<0.05; **P<0.005 by Student's t-test.
One day before transfection, CL1-0 cells were seeded at a concentration of 2.5×10^4 per well. Next, the pClneo vector or miR-135b plasmid was co-transfected with the pGL3-target gene-3′UTR. The Renilla lunciferase plasmid (phRL-TK, Promega, Madison, Wis.) was co-transfected as transfection control. Cells were lysed 36 hours after transfection, and luciferase activity was measured using a Dual-Luciferase system (Promega, Madison, Wis.) according to the manufacture's protocol.
For orientation: A reporter such as luciferase makes a cellular process visible.

The test system of data set [4] is CL141 cells. The experiment in a line: Western blot of Hippo pathway proteins. It counts as cell-based. The conditions noted are these: 72 hours. As for the experimental part:
Western bolt analysis of the Hippo pathway proteins in CL1-5-F4 and CL141 cells incubated with Scramble (NC) of Antago-135b for 72 hours. Quantitative RT-PCR was used to assay miR-135b knockdown activity.

Data set [5] deals with CL1-5-F4 cells. Briefly: Transwell invasion assay. It counts as cell-based, human. As to conditions: CL1-5-F4 cells transfected 48 hours, vs scramble (NC). The protocol:
as §2
CL1-5-F4 cells transfected with plasmids expressing either control or miR-135b sponges were analyzed using in vitro invasion assay. The average number of invading cells obtained in the transwell invasion assay is presented (n=3).
Transwell chambers ([…], BD Falcon, Franklin Lakes, N.J.) were coated with the appropriate amount of Matrigel (BD Biosciences, San Jose, Calif.). Next, 2.5×10^4 cells were suspended in NuSerum-containing media (Gibco BRL, Grand Island N.Y., USA), seeded in the chamber and cultured, Cells that invaded the chamber from top to bottom were fixed with methanol and stained with a solution of propidium iodine (Sigma-Aldrich, St. Louis, Mo.). The propidiumiodine-positive signal was quantified using Analytical Imaging Station software package. Each sample was assayed in triplicate.

The test system of data set [6] is UACC-257 cells. Briefly: Western blot of endogenous LZTS1. It counts as cell-based. The conditions noted are these: 100 nM, 48 hours. As for the experimental part:
as §1

The test system of data set [7] is CL1-5-F4 cells. Briefly: Migration assay (culture inserts). It counts as cell-based, human. The conditions noted are these: CL1-5-F4 cells transfected 48 hours, vs scramble (NC). As for the experimental part: as §2, §3
The subject of data set [8] is CL1-5 cells. The experiment in a line: Orthotopic lung cancer model. Type of data set: in vivo, nude mice. The protocol: CL1-5 cells were implanted orthotopically into the left lungs of 6-weeks-old nude mice (n=9). A series of scramble antagomir (NC) or miR-135b antagomir (Antago-135b) intravenous injections were performed every 2 days after tumor cell implantation. Lungs were harvested 25 days after the cells were implanted. […] Arrows indicate the visible nodules. […] Data are expressed as mean±s.e.m. *P<0.05 by Student's t-test.
Mice bearing CL1-5 cells were subjected to scramble antagomir (NC) or miR-135b antagomir (Antago-135b) treatment. Animal survival was determine using Kaplan-Meier survival analysis and the log-rank test for data obtained 25 days after the cancer cells were orthotopically injected (n=9).
Next, the effects of miR-135b inhibition on tumor growth and metastasis in an orthotopic lung cancer model were checked. Seven intravenous injections of miR-135b antagomir were given 4 days after CL1-5 implantation.

Data set [9] deals with CL1-5-F4 cells. The experiment in a line: Soft agar anchorage-independent growth assay. It counts as cell-based, human. The conditions noted are these: CL1-5-F4 cells transfected 48 hours, vs NC. The protocol: CL1-5-F4 and Hop-62 cells were transfected with the negative control (NC) or the Anatago-135b for 48 hours and subjected to soft agar assays. Error bars indicate mean±s.d.,*P<0.05 by Student's t-test.

Data set [10] relates to H441 human lung adenocarcinoma cells. The experiment in a line: Subcutaneous xenograft tumor growth. Type of data set: in vivo, nude mice. The protocol:
Nude mice were subcutaneously injected with 5×10^5 H441 cells. Scramble antagomir (NC) or miR-135b Antagomir (antago-135b) was administered via tail vein injection 2 days after implantation. On day 14 after cancer cell implantation, tumor volume measurements began and were performed every 4 days (n=9). Mean±s.e.m. is shown,*P<0.05 by Student's t-test.
Animals were housed in a specific-pathgen-free environment in the animal facility of the Institute of Biomedical Sciences, Academia Sinica. All experimental procedures were in compliance with the Academia Sinica IACUC and Council of Agriculture Guidebook for the Care and Use of Laboratory Animals. For intravenous injections of the tumor cells, 1×10^6 cells were suspended in 0.1 mL of phosphate-buffered saline (PBS) and injected into lateral tail vein of SCID mice (10 mice per group). At 8 weeks after injection, all mice were killed, and lung surface tumor foci were counted. For the subcutaneous tumor assay, 1×10^6 CL1-0 cells or 2×10^5 H441 cells were subcutaneously injected in 0.1 mL of PBS into male nude mice (n=8 per group) and allowed to grow for 35 days to reach a volume of 50-200 mm^3 Control antagomir (Scramble) or anti-miR-135b antagomir (antago-135) was intravenously injected at a concentration of 10 μM in 0.1 mL of PBS 4 days after the cells were implanted. An example of a miR-135b antagomir is 5′mU(*)mC(*)mAmCmAmUmAmG-mGmAmAmUmGmAmAmAmAmGmCmC(*)mA(*)mU(*)mA(*)(3′-Ch1)3′ (SEQ ID NO:8). The mN indicates 2′-O-methyl base;* indicates phosphorothioate linkage; Ch1 indicates cholesterol.

[11] abbreviates: seven i.v. injections, 4 days after CL1-5 implantation, vs control lungs.
Setting [12] is: antagomir systemically injected 4 days after cancer cell implantation.

With “5′mU(*)mC(*)mAmCmAmUmAmG-mGmAmAmUmGmAmAmAmAmGmCmC(*)mA(*)mU(*)mA(*)(3′-Ch1)3′ (SEQ ID NO:8) (mU*mC*mAmCmAmUmAmGmGmAmAmUmGmAmAmAmAmGmCmC*mA*mU*mA*{Chol}) [miR-135b antagomir]”, in data set [1], the LZTS1 expression entry is given as “significantly increased”. Moreover, the migratory ability result in data set [2] is recorded as “inhibited these changes”. Also, the miR-135b-induced reporter activity entry in data set [3] is given as “decrease”. Further, in data set [4], the “LATS2, β-TrCP and NDR2 expressions” value was “induced”; the TAZ protein expression result was “reduced”. Besides, in data set [5], the invasive ability entry was “inhibited these changes”. Moreover, the LZTS1 expression result in data set [6] is “significantly increased”. Also, the migratory ability result in data set [7] is “inhibited these changes”. Moreover, in [8] (setting [11]), the orthotopic tumor growth entry is “inhibited orthotopic tumor growth” and the “volume of lung metastases” value was “decrease the volume of lung metastases”. The survival rates result in data set [8] (systemic delivery in orthotopic tumor-bearing mice) was “increased survival rates”. Further, in [9], the “number of cell colonies (soft agar)” value is recorded as “decreased”. Further, the “growth of H441 cells” value in data set [10] (antagomir administered before xenograft implantation) is on record as “inhibited”. Further, in data set [10] (setting [12]), the xenograft tumor incidence entry is listed as “significantly reduced” and the xenograft tumor volume result is on record as “significantly reduced”.
